Assay results: US20070191324A1, “Methods for treatment or prophylaxis of aldosterone-mediated pathogenic effects in a subject using an epoxy-steroidal aldosterone antagonist” (priority 1999, published 2007)
Where two headings read alike, the source gives them in different places.

Assays:
[1] = tested on: patients with mild to moderate hypertension; assay: Eplerenone/HCTZ dose ranging factorial design study (Example D-2); format: in vivo, human; details: eplerenone 25, 50 or 200 mg daily; HCTZ 12.5 or 25 mg daily; 8 weeks
Procedure: Patients were assessed at weeks 0, 2, 4, and 8. Study assessments at protocol-specified timepoints included blood pressure (BP), heart rate, clinical laboratory analyses, vital signs, physical examinations, 12-lead ECG, and monitoring of adverse events. A total of 614 patients were randomized.

[2] = tested on: captopril-treated saline-drinking SHRSP; assay: Angiotensin II-induced renal damage in captopril-treated saline-drinking SHRSP, Protocol 2 (Example A-8); format: in vivo, rat (SHRSP/A3N)
Procedure: Animals. Studies were conducted in accordance with institutional guidelines using male SHRSP/A3N (generations F-75 to F-78), n=37, from our local colony. These animals were bred from NIH stock, derived from the SHRSP/A3N substrain described originally by Okamoto and coworkers (Okamoto K et al. Circ. Res. 34 and 35 (suppl I):I-143-I-153.). All animals were housed in a room maintained on a 12:12-h light:dark-cycle and an ambient temperature of 22±1° C. in the Animal Care Facility at New York Medical College. Rats were weaned at 4 weeks of age and allowed free access to Purina Lab Chow 5001 (Ralston Purina, St. Louis, Mo.) and tap water until the initiation of experimental protocols.
SHRSP were placed on Stroke-Prone Rodent Diet (#39-288, Zeigler Bros Inc., Gardners, Pa.) and 1% NaCl drinking solution ad libitum starting at 8.3 weeks of age. […] Animals were handled and weighed daily. Urine samples were collected for the assessment of proteinuria. Systolic blood pressure and heart rate were measured each week. After 2 weeks of treatment, animals were decapitated, trunk blood was collected into chilled EDTA tubes, and the kidneys were removed, blotted dry, and immediately weighed. Coronal sections of kidney were fixed and later processed for light microscopic evaluation.
Assays and Analyses. Systolic blood pressure and heart rate of awake animals were measured by tail-cuff plethysmography using a Natsume KN-210 manometer and tachometer (Peninsula Laboratories Inc., Belmont, Calif.). Rats were warmed at 37° C. for 10 min and allowed to rest quietly in a Lucite chamber before measurement of blood pressure. Measurements of urine volume were made gravimetrically. Urinary protein concentration was determined by the sulfosalicylic acid turbidity method. Plasma aldosterone was measured by radioimmunoassay using ^125I-aldosterone as a tracer (Coat-a Count Aldosterone, Diagnostic Products Co., Los Angeles, Calif.).
Histology. Kidneys were preserved in 10% phosphate-buffered formalin. Coronal sections (2-3 μm) were stained with hematoxylin and eosin and examined by light microscopy in a blinded fashion as previously described (Stier C T et al. J Pharmacol Exp Ther (1992) 260:1410-1415). Glomerular damage was categorized as ischemic or thrombotic. Ischemic lesions were defined as retraction of glomerular capillary tufts with or without appreciable mesangiolysis. Glomerular thrombotic lesions were defined as any one of a combination of the following: segmental to global fibrinoid necrosis, focal thrombosis of glomerular capillaries, swelling and proliferation of intracapillary (endothelial and mesangial) and/or extracapillary cells (crescents), and expansion of reticulated mesangial matrix with or without significant hypercellularity. […] Vascular thrombotic lesions were defined as any one or a combination of the following: mural fibrinoid necrosis, extravasation and fragmentation of red blood cells, and luminal and/or mural thrombosis. Proliferative arteriopathy was characterized by proliferation of markedly swollen myointimal cells with swollen round to ovoid vesicular nuclei surrounded by mucinous extracellular matrix (“onion skinning”) often resulting in nodular thickening. Vascular damage was expressed as the number of arteries and arterioles with lesions per 100 glomeruli. The presence of casts and tubular (ischemic) retraction and simplification was assessed semiquantitatively.
Statistical Analysis. Significant effects with respect to treatment and time were determined by two-way analysis of variance. Data with only one grouping variable were analyzed statistically by Student's unpaired t tests. When more than two groups were compared, one-way analysis of variance was performed followed by the post-hoc Newman-Keul's multiple comparison test. Data were analyzed using version 2.01 of the GraphPad Prism statistical software package (GraphPad Software Inc., San Diego, Calif.). P<0.05 was considered statistically significant.

[3] = tested on: patients with low-renin hypertension; assay: Eplerenone versus losartan in low-renin hypertension, 16 weeks (Examples A-16, D-5); format: in vivo, human
Source text: Patients will continue on therapy until Week 16. Table […] illustrates the above-described dosing scheme. […] Plasma renin will be determined at screening; serum aldosterone, plasma renin, and plasma cortisol will be determined at Weeks 0, 8, and 16. […] A 12-lead electrocardiogram will be done at Weeks 0 and 16. Physical examinations will be completed at screening and at Week 16. […] Secondary measures of efficacy will be the following: […] Study design is illustrated in FIG. D-16. […] At Weeks 8 and 16, BP, RAAS hormone profile, and safety were assessed.

[4] = tested on: black and white patients with mild-to-moderate hypertension; details: for Active Renin (% change) / ΔDBP / ΔSBP: baseline to Week 16
[5] = tested on: patients with mild-to-moderate hypertension; assay: Eplerenone versus enalapril in essential hypertension, 12-month titration-to-effect (Example D-3); format: in vivo, human
Procedure: The study design is illustrated in FIG. D-6. Patients with mild-to-moderate hypertension (diastolic blood pressure [DBP]≧95 mmHg and <110 mmHg) were randomized to receive initially EPL 50 mg QD (n=253) or ENAL 10 mg QD (n=246). If DBP ≧90 mmHg at Weeks 4, 8, 12, 16, or 20, the dose of study medication was up-titrated incrementally to EPL 100 mg and 200 mg QD, or ENAL 20 mg and 40 mg QD. […] At 24 wks and 12 months, changes in BP, RAAS hormone profile, urinary albumin excretion (urinary albumin: creatinine ratio [UACR]), laboratory tests, safety, and adverse events (AEs) were assessed.

[6] = tested on: patients with hypertension and left ventricular hypertrophy; assay: Eplerenone, enalapril and combination in left ventricular hypertrophy, 9 months (Examples A-15, D-4); format: in vivo, human
Source text: Table […] illustrates forth the above-described dosing scheme. […] Additional laboratory assessments of blood for clinical safety will be done monthly. Routine urinalysis will be done every three months. […] A blood sample for genotyping will be collected at Week 0. At screening and at Month 9, a 12-lead ECG and physical examination will be done. […] In case of early termination, an MRI and blood sample for TSH will be done for those patients who have received double-blind treatment for at least three months. At Weeks 0, 12 and Months 6 and 9, pharmacoeconomic data will be collected on all patients. The primary measure of efficacy is the change from baseline in LVM, as assessed by MRI, in the eplerenone group versus the enalapril group. […] Secondary measures of efficacy will be the following: […] (3) aortic compliance and ventricular filling parameters; and (4) special studies (PIIINP, microalbuminuria, PAI, and tPA). Additionally, the long-term safety and tolerability of the three treatment groups will be compared. […] The study design is illustrated in FIG. D-10. […] Left ventricular mass (LVM) (assayed by MRI), BP, collagen turnover, and tolerability were assessed at the 9-month endpoint.

[7] = tested on: diabetic type 2 patients with hypertension and microalbuminuria; assay: Eplerenone, enalapril and combination in diabetic hypertensives with microalbuminuria, 24 weeks (Examples A-18, D-7); format: in vivo, human
[8] = captopril 50 mg/kg/d, angiotensin II 25 ng/min, eplerenone 100 mg/kg/d, 2 weeks
[9] = Week 8 (monotherapy), EPL 100-200 mg QD, LOS 50-100 mg QD
[10] = Week 16, after allowed addition of HCTZ
[11] = Week 24, EPL 50-200 mg QD, ENAL 10-40 mg QD titrated
[12] = 9-month endpoint, forced titration
[13] = 9-month endpoint, EPL 200 mg, ENAL 40 mg, EPL 200 mg/ENAL 10 mg

NS(=O)(=O)c1cc2c(cc1Cl)NCNS2(=O)=O [HCTZ, reference compound]
DBP, change from Baseline to the Final Visit [1]: dose-dependent decreases in DBP | SBP, change from Baseline to the Final Visit [1]: dose-dependent decreases in SBP

C[C@H](CS)C(=O)N1CCC[C@H]1C(=O)O [Captopril]
Glomerular damage, Total [2, 8]: 0 ± 0 lesions/100 glomeruli | Renal arteriopathy, Proliferative [2, 8]: 0 ± 0 lesions/100 glomeruli | Renal arteriopathy, Thrombotic [2, 8]: 0 ± 0 lesions/100 glomeruli | Renal arteriopathy, Total [2, 8]: 0 ± 0 lesions/100 glomeruli | plasma aldosterone concentration [2, 8]: 107 ± 26 pg/mL | tubules with ischemic retraction and simplification [2, 8]: absent

CCCCc1nc(Cl)c(CO)n1Cc1ccc(-c2ccccc2-c2nn[nH]n2)cc1 [Losartan, reference compound]
cumulative percentage of patients requiring HCTZ add-on therapy ([3]; 16 weeks): 55.6% | increase in active renin levels ([3]; Week 8): +63.8% | increase in serum aldosterone levels ([3]; Week 8): −18.7% | mean change from baseline in DBP [3, 9]: −6.7 mmHg | mean change from baseline in SBP [3, 9]: −10.1 mmHg | increase in active renin levels ([3]; Week 16): +83.3% | increase in serum aldosterone levels ([3]; Week 16): −5.5% | mean change from baseline in DBP [3, 10]: −9.8 mmHg | mean change from baseline in SBP [3, 10]: −15.0 mmHg | Active Renin (% change) ([4]; All Patients): +67.1% | ΔDBP ([4]; All Patients): −6.9 mmHg | ΔSBP ([4]; All Patients): −6.3 mmHg | Active Renin (% change) ([4]; Black Patients): +40.0% | ΔDBP ([4]; Black Patients): −6.0 mmHg | ΔSBP ([4]; Black Patients): −5.3 mmHg | adjusted mean percent change from baseline in UACR ([4]; Week 16, EPL 50-200 mg QD, LOS 50-100 mg QD): −18.2% | Active Renin (% change) ([4]; White Patients): +113.7% | ΔDBP ([4]; White Patients): −8.4 mmHg | safety and tolerability ([4]; human, in vivo): safe and well-tolerated

CCOC(=O)[C@H](CCc1ccccc1)N[C@@H](C)C(=O)N1CCC[C@H]1C(=O)O [Enalapril, reference compound]
patients experiencing coughing ([5]; 12-month study): 6.5% | patients experiencing hyperglycemia ([5]; 12-month study): 2.8% | patients experiencing urinary tract infections (UTI) ([5]; 12-month study): 2.8% | DBP change ([5]; 12 months): −14.1 mmHg | SBP change ([5]; 12 months): −14.8 mmHg | DBP change [5, 11]: −11.3 mmHg | SBP change [5, 11]: −12.7 mmHg | reduction in UACR ([5]; Week 24, patients with baseline UACR ≧30 mg/g): −25.7% | safety and tolerability ([5]; in vivo): safe and well tolerated | DBP Adjusted mean change [6, 12]: −13.0 mmHg | SBP Adjusted mean change [6, 12]: −22.5 mmHg | decrease from baseline in UACR [6, 13]: −39.1% | decrease from baseline in collagen turnover [6, 13]: −7.3% | patients experiencing coughing ([6]; 9-month study): 14.1% | LVM Adjusted mean change [g (SE)] ([6]; left ventricular mass by MRI, 9-month endpoint, forced titration (EPL 50-200 mg, ENAL 10-40 mg)): −19.7 (3.20) g | patients withdrawn for hyperkalemia ([7]; 24 weeks): 2 patients | subjects with elevated K+ (≧6.0 mEq/L) ([7]; 24 weeks): 2 subjects | patients requiring addition of hydrochlorothiazide (HCTZ) ([7]; EPL 200 mg QD, ENAL 40 mg QD, EPL 200 mg/ENAL 10 mg, 24 weeks): 43/81 | Adjusted mean change ΔDBP (Week 8-baseline) ([7]; Week 8): −11.6 | Adjusted mean change ΔSBP (Week 8-baseline) ([7]; Week 8): −15.4 | Adjusted mean change ΔDBP (Week 24-baseline) ([7]; Week 24): −15.0 | Adjusted mean change ΔSBP (Week 24-baseline) ([7]; Week 24): −20.4 | tolerability ([7]; in vivo): well tolerated

Angiotensin II: Angiotensin II (human type) infused by osmotic minipump (DRVYIHPF; Angiotensin-2; UniProt P01019 25-32, looked up)
Glomerular damage, Ischemic [2, 8]: 13 ± 3 lesions/100 glomeruli | Glomerular damage, Thrombotic [2, 8]: 2 ± 1 lesions/100 glomeruli | Glomerular damage, Total [2, 8]: 15 ± 3 lesions/100 glomeruli | Renal arteriopathy, Proliferative [2, 8]: 1 ± 1 lesions/100 glomeruli | Renal arteriopathy, Thrombotic [2, 8]: 15 lesions/100 glomeruli | Renal arteriopathy, Total [2, 8]: 16 ± 2 lesions/100 glomeruli | plasma aldosterone concentration [2, 8]: 404 ± 160 pg/mL | renal damage ([2]; captopril + angiotensin II 25 ng/min, with eplerenone 100 mg/kg/d or vehicle): 18±4% | proteinuria (urinary protein excretion) ([2]; end of study (2 weeks), captopril 50 mg/kg/d, angiotensin II 25 ng/min s.c., eplerenone 100 mg/kg/d by gavage): 96 ± 13 mg/day
